Drawing on ChEMBL document CHEMBL5512655, “Discovery of indolylacryloyl-derived oxacins as novel potential broad-spectrum antibacterial candidates” (Eur J Med Chem, 2024), this text covers MIC for nine molecules.

Converted amounts (≈) assume the structure as drawn.

Common to all, as to type: functional
Test [1] has as its system Pseudomonas aeruginosa. Briefly: Antibacterial activity against Pseudomonas aeruginosa ATCC 27853 assessed as inhibition of bacterial growth measured after 24 hrs incubation.
For test [2], the system named is Staphylococcus aureus. The test can be described thus: Antibacterial activity against Staphylococcus aureus ATCC 29213 assessed as inhibition of bacterial growth measured after 24 hrs incubation.
Test [3] has as its system Staphylococcus aureus. The test can be described thus: Antibacterial activity against Staphylococcus aureus ATCC 25923 assessed as inhibition of bacterial growth measured after 24 hrs incubation.
Test [4] relates to Pseudomonas aeruginosa. The test can be described thus: Antibacterial activity against Pseudomonas aeruginosa assessed as inhibition of bacterial growth measured after 24 hrs incubation.
A further test deals with Klebsiella pneumoniae. Briefly: Antibacterial activity against Klebsiella pneumonia assessed as inhibition of bacterial growth measured after 24 hrs incubation.
Test [5] relates to Staphylococcus aureus. The test can be described thus: Antibacterial activity against methicillin-resistant Staphylococcus aureus N315 assessed as inhibition of bacterial growth measured after 24 hrs incubation.
For test [6], the system named is Escherichia coli. The test can be described thus: Antibacterial activity against Escherichia coli ATCC 25922 assessed as inhibition of bacterial growth measured after 24 hrs incubation.
A further test has as its system Enterococcus faecalis. Briefly: Antibacterial activity against Enterococcus faecalis assessed as inhibition of bacterial growth measured after 24 hrs incubation.
Test [7] relates to Staphylococcus aureus. The test can be described thus: Antibacterial activity against Staphylococcus aureus assessed as inhibition of bacterial growth measured after 24 hrs incubation.
Test [8] deals with Escherichia coli. Briefly: Antibacterial activity against Escherichia coli assessed as inhibition of bacterial growth measured after 24 hrs incubation.
A further test has as its system Acinetobacter baumannii. The test can be described thus: Antibacterial activity against Acinetobacter baumannii assessed as inhibition of bacterial growth measured after 24 hrs incubation.

Take `CCCCCCCCn1cc(/C=C(\C#N)C(=O)N2CCN(c3cc4c(cc3F)c(=O)c(C(=O)O)cn4CC)CC2)c2ccccc21`: the MIC in the test with Pseudomonas aeruginosa [1] is 32 µg/mL (≈ 51.1 µM); in the test with Staphylococcus aureus [2] it was 1 µg/mL (≈ 1.6 µM); in the test with Staphylococcus aureus [3] it was 0.25 µg/mL (≈ 0.4 µM); with Pseudomonas aeruginosa [4], 16 µg/mL (≈ 25.6 µM); with Klebsiella pneumoniae, 2 µg/mL (≈ 3.2 µM); with Staphylococcus aureus [5] it was 0.5 µg/mL (≈ 0.799 µM). Moreover, the MIC is 4 µg/mL (≈ 6.39 µM) in the test with Escherichia coli [6]; 1 µg/mL (≈ 1.6 µM) in the test on Enterococcus faecalis; 1 µg/mL (≈ 1.6 µM) with Staphylococcus aureus [7]; 64 µg/mL (≈ 102 µM) in the test with Escherichia coli [8]; 8 µg/mL (≈ 12.8 µM) in the test on Acinetobacter baumannii.

For the molecule `CCn1cc(C(=O)O)c(=O)c2cc(F)c(N3CCN(C(=O)/C(C#N)=C/c4cn(CC5CCCCC5)c5ccccc45)CC3)cc21`, the MIC in the test on Pseudomonas aeruginosa [1] worked out at 1 µg/mL (≈ 1.64 µM); in the test on Staphylococcus aureus [2] it was 1 µg/mL (≈ 1.64 µM); with Staphylococcus aureus [3], 16 µg/mL (≈ 26.2 µM); with Pseudomonas aeruginosa [4] it was 2 µg/mL (≈ 3.28 µM); in the test with Klebsiella pneumoniae, 1 µg/mL (≈ 1.64 µM); in the test on Staphylococcus aureus [5], 16 µg/mL (≈ 26.2 µM). The MIC is 4 µg/mL (≈ 6.56 µM) in the test with Escherichia coli [6]; 32 µg/mL (≈ 52.5 µM) with Enterococcus faecalis; 32 µg/mL (≈ 52.5 µM) with Staphylococcus aureus [7]; 1 µg/mL (≈ 1.64 µM) with Escherichia coli [8]; 1 µg/mL (≈ 1.64 µM) with Acinetobacter baumannii.

As for `CCn1cc(C(=O)O)c(=O)c2cc(F)c(N3CCN(C(=O)/C(C#N)=C/c4cn(CC=C(C)C)c5ccccc45)CC3)cc21`, the MIC in the test with Pseudomonas aeruginosa [1] came out at 1 µg/mL (≈ 1.72 µM); with Staphylococcus aureus [2], 4 µg/mL (≈ 6.88 µM); in the test on Staphylococcus aureus [3], 4 µg/mL (≈ 6.88 µM); in the test with Pseudomonas aeruginosa [4], 8 µg/mL (≈ 13.8 µM); in the test on Klebsiella pneumoniae, 0.25 µg/mL (≈ 0.43 µM); in the test with Staphylococcus aureus [5] it was 8 µg/mL (≈ 13.8 µM). Also, the MIC in the test with Escherichia coli [6] worked out at 0.5 µg/mL (≈ 0.86 µM); with Enterococcus faecalis, 1 µg/mL (≈ 1.72 µM); with Staphylococcus aureus [7], 1 µg/mL (≈ 1.72 µM); in the test with Escherichia coli [8], 64 µg/mL (≈ 110 µM); with Acinetobacter baumannii, 2 µg/mL (≈ 3.44 µM).

Take `CCCn1cc(/C=C(\C#N)C(=O)N2CCN(c3cc4c(cc3F)c(=O)c(C(=O)O)cn4CC)CC2)c2ccccc21`: the MIC is 1 µg/mL (≈ 1.8 µM) with Pseudomonas aeruginosa [1]; 1 µg/mL (≈ 1.8 µM) in the test with Staphylococcus aureus [2]; 4 µg/mL (≈ 7.2 µM) in the test with Staphylococcus aureus [3]; 0.5 µg/mL (≈ 0.9 µM) in the test on Pseudomonas aeruginosa [4]; 0.25 µg/mL (≈ 0.45 µM) in the test on Klebsiella pneumoniae; 2 µg/mL (≈ 3.6 µM) in the test with Staphylococcus aureus [5]. Moreover, the MIC is 0.25 µg/mL (≈ 0.45 µM) with Escherichia coli [6]; 1 µg/mL (≈ 1.8 µM) in the test on Enterococcus faecalis; 0.5 µg/mL (≈ 0.9 µM) with Staphylococcus aureus [7]; 0.5 µg/mL (≈ 0.9 µM) in the test on Escherichia coli [8]; 0.25 µg/mL (≈ 0.45 µM) in the test with Acinetobacter baumannii.

As to `CCn1cc(C(=O)O)c(=O)c2cc(F)c(N3CCN(C(=O)/C(C#N)=C/c4cn(Cc5ccccc5)c5ccccc45)CC3)cc21`, the MIC in the test on Pseudomonas aeruginosa [1] turned out to be 1 µg/mL (≈ 1.66 µM); in the test with Staphylococcus aureus [2], 4 µg/mL (≈ 6.63 µM); in the test with Staphylococcus aureus [3], 4 µg/mL (≈ 6.63 µM); in the test on Pseudomonas aeruginosa [4], 256 µg/mL (≈ 424 µM); in the test on Klebsiella pneumoniae it was 0.5 µg/mL (≈ 0.828 µM); in the test on Staphylococcus aureus [5], 4 µg/mL (≈ 6.63 µM). Further, the MIC stood at 2 µg/mL (≈ 3.31 µM) in the test with Escherichia coli [6]; 4 µg/mL (≈ 6.63 µM) with Enterococcus faecalis; 4 µg/mL (≈ 6.63 µM) in the test with Staphylococcus aureus [7]; 1 µg/mL (≈ 1.66 µM) in the test on Escherichia coli [8]; 2 µg/mL (≈ 3.31 µM) with Acinetobacter baumannii.

As for `CCn1cc(C(=O)O)c(=O)c2cc(F)c(N3CCN(C(=O)/C(C#N)=C/c4c[nH]c5ccccc45)CC3)cc21`, the MIC with Pseudomonas aeruginosa [1] was 0.5 µg/mL (≈ 0.974 µM); in the test with Staphylococcus aureus [2] it was 0.5 µg/mL (≈ 0.974 µM); in the test on Staphylococcus aureus [3], 1 µg/mL (≈ 1.95 µM); with Pseudomonas aeruginosa [4], 1 µg/mL (≈ 1.95 µM); in the test with Klebsiella pneumoniae, 0.25 µg/mL (≈ 0.487 µM); in the test with Staphylococcus aureus [5] it was 0.5 µg/mL (≈ 0.974 µM). The MIC in the test with Escherichia coli [6] was 0.25 µg/mL (≈ 0.487 µM); in the test with Enterococcus faecalis, 0.25 µg/mL (≈ 0.487 µM); with Staphylococcus aureus [7], 4 µg/mL (≈ 7.79 µM); in the test on Escherichia coli [8], 0.5 µg/mL (≈ 0.974 µM); in the test on Acinetobacter baumannii, 0.25 µg/mL (≈ 0.487 µM).

Take `CCn1cc(C(=O)O)c(=O)c2cc(F)c(N3CCN(C(=O)/C(C#N)=C/c4cn(CC5CCC5)c5ccccc45)CC3)cc21`: the MIC in the test with Pseudomonas aeruginosa [1] was determined as 4 µg/mL (≈ 6.88 µM); in the test on Staphylococcus aureus [2], 0.25 µg/mL (≈ 0.43 µM); with Staphylococcus aureus [3], 0.25 µg/mL (≈ 0.43 µM); in the test on Pseudomonas aeruginosa [4] it was 0.25 µg/mL (≈ 0.43 µM); with Klebsiella pneumoniae, 0.25 µg/mL (≈ 0.43 µM); in the test on Staphylococcus aureus [5] it was 0.25 µg/mL (≈ 0.43 µM). Besides, the MIC was 0.5 µg/mL (≈ 0.86 µM) in the test with Escherichia coli [6]; 0.5 µg/mL (≈ 0.86 µM) in the test on Enterococcus faecalis; 0.25 µg/mL (≈ 0.43 µM) with Staphylococcus aureus [7]; 0.5 µg/mL (≈ 0.86 µM) in the test with Escherichia coli [8]; 0.25 µg/mL (≈ 0.43 µM) in the test with Acinetobacter baumannii.

`CCn1cc(C(=O)O)c(=O)c2cc(F)c(N3CCN(C(=O)/C(C#N)=C/c4cn(Cc5ccc(Cl)c(Cl)c5)c5ccccc45)CC3)cc21`: the MIC in the test on Pseudomonas aeruginosa [1] stood at 1 µg/mL (≈ 1.49 µM); with Staphylococcus aureus [2] it was 64 µg/mL (≈ 95.2 µM); in the test on Staphylococcus aureus [3], 64 µg/mL (≈ 95.2 µM); with Pseudomonas aeruginosa [4] it was 2 µg/mL (≈ 2.97 µM); in the test with Klebsiella pneumoniae, 1 µg/mL (≈ 1.49 µM); with Staphylococcus aureus [5], 4 µg/mL (≈ 5.95 µM). Besides, the MIC in the test with Escherichia coli [6] stood at 32 µg/mL (≈ 47.6 µM); in the test on Enterococcus faecalis, 32 µg/mL (≈ 47.6 µM); with Staphylococcus aureus [7], 16 µg/mL (≈ 23.8 µM); with Escherichia coli [8], 8 µg/mL (≈ 11.9 µM); in the test on Acinetobacter baumannii, 64 µg/mL (≈ 95.2 µM).

On to `C=CCn1cc(C(=O)O)c(=O)c2cc(F)c(N3CCN(C(=O)/C(C#N)=C/c4cn(CC(=O)OCC)c5ccccc45)CC3)cc21`, for which the MIC in the test with Pseudomonas aeruginosa [1] worked out at 4 µg/mL (≈ 6.54 µM); in the test on Staphylococcus aureus [2], 16 µg/mL (≈ 26.2 µM); in the test on Staphylococcus aureus [3] it was 64 µg/mL (≈ 105 µM); in the test with Pseudomonas aeruginosa [4], 256 µg/mL (≈ 419 µM); in the test on Klebsiella pneumoniae, 1 µg/mL (≈ 1.63 µM); with Staphylococcus aureus [5] it was 128 µg/mL (≈ 209 µM). Further, the MIC in the test with Escherichia coli [6] was 32 µg/mL (≈ 52.3 µM); in the test on Enterococcus faecalis it was 0.25 µg/mL (≈ 0.409 µM); with Staphylococcus aureus [7] it was 16 µg/mL (≈ 26.2 µM); in the test on Escherichia coli [8], 1 µg/mL (≈ 1.63 µM); with Acinetobacter baumannii it was 8 µg/mL (≈ 13.1 µM).
